# Assay results from ChEMBL document CHEMBL1151239, “New glycosides of the fungus Acremonium striatisporum isolated from a sea cucumber” (J Nat Prod, 2004).
# What was measured:
# [1] = Cytotoxicity against mouse EAC; format: functional, cell-based; conditions: Ehrlich
# [2] = Cytotoxicity against sea urchin egg; format: functional, Strongylocentrotus intermedius
SMILES,IC50 [1] [µM],IC50 [2] [µM]
C=C[C@]1(C)C=C2C(=O)C[C@@H]3[C@](C)(CCC(=O)[C@]3(C)CO[C@@H]3O[C@H](CO)[C@@H](O)[C@@H](O)[C@@H]3O)[C@H]2CC1,25,100
C=C[C@]1(C)C=C2[C@H](O)C[C@@H]3[C@](C)(CCC(=O)[C@]3(C)CO[C@@H]3O[C@H](CO)[C@@H](O)[C@@H](O)[C@@H]3O)[C@H]2CC1,25,100
C=C[C@@]1(C)CCC2=C(C1)C(=O)C[C@H]1[C@@](C)(CO[C@@H]3O[C@H](CO)[C@@H](O)[C@@H](O)[C@@H]3O)C(=O)CC[C@]21C,25,100
C=C[C@@]1(C)CC[C@H]2C(=CC[C@@H]3[C@]2(C)C[C@@H](O)[C@H](O)[C@]3(C)CO[C@@H]2O[C@H](CO[C@H]3O[C@H](CO)[C@@H](O)[C@H](O)[C@H]3O)[C@@H](O)[C@@H](O)[C@@H]2O)C1 [VIRESCENOSIDE R],25,100
